From patent US20060014231A1, “Methods and compositions to promote bone homeostasis” (priority 2004, published 2006) come the findings set out here.

The subject of test [1] is MPCs. Kind of test: Up-regulation of NR5A2 and NR1H3 mRNA levels by osteogenic triggers in MPCs. The test is classed as cell-based, human. As to conditions: final concentration 0.1 μM, versus vehicle, several time points. As to the method: 100,000 MPCs are seeded in each well of a 6 well plate in 2 ml MPC medium, containing 10% FCS. The next day, after incubation at 37° C., 10% CO2 in a humidified incubator, cells are co-infected with AdC15-hCAR (final MOI of 750) and Ad-BMP2, Ad-RUNX2, Ad-MSX2, Ad-PTHR1/PTHLH or Ad-eGFP or Ad-luciferase as negative controls (final MOIs of 1250 and 2500). Alternatively, cells are treated with dexamethasone (final concentration 0.1 μM), VitD3 (final concentration 0.1 μM) or the vehicle controls (0.1% EtOH or DMSO). Cells are incubated at 37° C., 10% CO2 in a humidified incubator for a further six days unless cells are already harvested for RNA isolation. Virus is removed and replaced by 2 ml fresh OS medium (proprietary medium containing 10% FCS). Over the next 18 days, medium is refreshed 3 times per 2 weeks. Every other time, medium is refreshed half or completely. […] The fold up-regulation of NR5A2 or NR1H3 mRNA compared to negative controls (vehicle for dexamethasone or VitD3 treatment) or Ad-luciferase for Ad-infections) is calculated (FIG. 16).

Test [2] concerns the target T1, GPR65 (Homo sapiens, UniProt Q8IYL9).
T1 construct: amplification of the complete open reading frame from ATG start codon to the stop codon of drugable genes; expressed in transfected cells; host or cells: primary human bone-marrow MPCs, adenoviral transduction (Ad-GPR65 with Ad-hCAR)
Kind of test: Alkaline phosphatase (AP) assay in MPCs infected with Ad-GPR65 and treated with ligand. The test is classed as cell-based. As to conditions: MPCs infected with Ad-GPR65, increasing ligand concentrations. The protocol: These dose-response curves are depicted in FIG. 5. A dose-response curve for AP activity is generated for MPCs infected with Ad-NR1H3 and treated with T0901317 (FIG. 5A). MPCs are seeded on day 0 at 1000 cells per well of a 384 well plate and co-infected the next day using AdC51-hCAR (MOI 250) and different MOIs of Ad5-NR1H3 (MOI 12000, 4000, 1333, 444). On day 1, 5 concentrations (1E-10M, 1E-9M, 1E-8M, 1E-7M, 1E-6M) of the compound T0901317 (Cayman Chemical, Michigan USA, Cat. No. 71810) with fixed vehicle concentration (the vehicle is DMSO at the concentration is 0.01 %) are added to the wells. After incubation for 6 days at 37° C., 10% CO2 in a humidified incubator, up-regulation of alkaline phosphatase is read: 15 μl MUP is added to each well, the plates are incubated for 15 min at 37° C. and monitored for AP activity using a fluorescence plate reader (Fluostar, BMG).
Dose-response curves for AP activity are generated in a similar way for MPCs infected with Ad-GPR65 and treated with 1-b-D-Galactosylsphingosine (FIG. 5B); for MPCs infected with Ad-AVPR2 and treated with [deamino-Cys1, D-Arg8]-Vasopressin (DDAVP) (FIG. 5C).

The target of test [3] is T2, NR1H2 (Homo sapiens, UniProt P55055).
T2 construct: amplification of the complete open reading frame from ATG start codon to the stop codon of drugable genes; expressed in transfected cells; host or cells: primary human bone-marrow MPCs, adenoviral transduction (Ad5-NR1H2 with Ad-hCAR)
T2 sequence (P55055 1-460): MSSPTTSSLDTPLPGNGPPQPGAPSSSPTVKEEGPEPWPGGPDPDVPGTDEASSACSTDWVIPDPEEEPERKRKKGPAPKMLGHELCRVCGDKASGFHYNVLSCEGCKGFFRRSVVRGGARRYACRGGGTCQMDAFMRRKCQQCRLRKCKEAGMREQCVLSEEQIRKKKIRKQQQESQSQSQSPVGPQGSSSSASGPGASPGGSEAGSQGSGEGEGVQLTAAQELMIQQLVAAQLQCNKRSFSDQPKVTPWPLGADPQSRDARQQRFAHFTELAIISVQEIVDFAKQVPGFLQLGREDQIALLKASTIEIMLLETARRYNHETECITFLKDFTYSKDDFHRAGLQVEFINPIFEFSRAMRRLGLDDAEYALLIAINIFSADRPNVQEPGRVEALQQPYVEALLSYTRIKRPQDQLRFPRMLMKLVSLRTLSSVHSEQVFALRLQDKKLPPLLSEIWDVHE
Kind of test: Alkaline phosphatase (AP) assay in MPCs infected with Ad-NR1H2 and treated with ligand. Type of test: cell-based. The settings on record: MPCs infected with Ad-NR1H2, increasing ligand concentrations, MUP readout after 7, 10 and 13 days. The protocol: (§1) After 6 days, medium is removed and replaced with fresh medium containing the same concentrations of the compound T0901317. Readouts of AP activity are performed at several time points after the start of the experiment, typically after 7, 10 and 13 days. Up-regulation of alkaline phosphatase activity is read as follows: medium is removed from the monolayers, 15 μl MUP is added to each well, the plates are incubated for 15 min at 37° C. and then read for AP activity using a fluorescence plate reader (Fluostar, BMG).
as §1, with “MPCs are seeded on day 0 at 1000 cells per well of a 384 well plate and co-infected the next day using AdC51-hCAR (MOI 250) and different MOIs of Ad5-NR1H2 (MOI 2000, 666). On day 1, 9 concentrations (1.52E-9M, 4.57E-9M, 1.37E-8M, 4.12E-8M, 1.23E-7M, 3.7E-7M, 1.11E-6M, 3.33E-6M, 1E-5M) of the compound GW3965 with fixed vehicle concentration (DMSO at final concentration of 0.161%) are added to the wells. After” for “After”, “GW3965.” for “T0901317.”
After 6 days, medium is removed and replaced with fresh medium containing the same concentrations of the compound APD. Readouts of AP activity are performed at several time points after the start of the experiment, typically after 7, 10 and 13 days. Up-regulation of alkaline phosphatase activity is read as follows: medium is removed from the monolayers, 15 μl MUP is added to each well, the plates are incubated for 15 min at 37° C. and then read for AP activity using a fluorescence plate reader (Fluostar, BMG).

The target in test [4] is T3, NR1H3 (Homo sapiens, UniProt Q13133).
T3 construct: amplification of the complete open reading frame from ATG start codon to the stop codon of drugable genes; expressed in transfected cells; host or cells: primary human bone-marrow mesenchymal progenitor cells (MPCs), adenoviral transduction (Ad5-NR1H3 with Ad-hCAR)
T3 sequence (Q13133 1-447): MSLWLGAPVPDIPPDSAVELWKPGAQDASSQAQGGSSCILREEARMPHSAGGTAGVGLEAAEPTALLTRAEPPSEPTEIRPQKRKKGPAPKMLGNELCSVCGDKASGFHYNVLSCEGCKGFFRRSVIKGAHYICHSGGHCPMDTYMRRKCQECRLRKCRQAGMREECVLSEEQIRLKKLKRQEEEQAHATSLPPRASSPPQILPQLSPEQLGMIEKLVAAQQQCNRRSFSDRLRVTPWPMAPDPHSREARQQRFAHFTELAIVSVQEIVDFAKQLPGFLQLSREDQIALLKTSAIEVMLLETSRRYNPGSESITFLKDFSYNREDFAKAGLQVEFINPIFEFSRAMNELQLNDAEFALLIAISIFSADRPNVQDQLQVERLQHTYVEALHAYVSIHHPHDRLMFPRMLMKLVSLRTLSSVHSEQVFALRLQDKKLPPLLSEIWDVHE
The test can be described thus: Alkaline phosphatase (AP) assay in MPCs infected with Ad-NR1H3 and treated with ligand. The settings on record: MPCs infected with Ad-NR1H3, increasing ligand concentrations, MUP fluorescence readout. Type of test: cell-based. The protocol: Cellular AP activity is determined 6 days after the infection (or ligand addition—see below). The principle of the assays is depicted in FIG. 2. Mesenchymal stem cells derived from bone marrow are infected with the FLeXSelect™ cDNA library viruses in the presence of Ad5C15-hCAR or Ad5C20-hCAR virus. Six days after the start of infection or treatment with a ligand, endogenous alkaline phosphatase activity is measured following addition of 4-methylumbelliferyl […] (MUP) substrate.
The stocks of the Ad-control-viruses are generated in 96 well plates (control plate). The 2 μl volume corresponds to a theoretical MOI of 5000. Controls are: P1=Ad-BMP2; P2=Ad-H4-2; P3=Ad-H4-291; N1=Ad-LacZ; N2=Ad-empty; N3=Ad-eGFP. Up-regulation of alkaline phosphatase is read at 6 days post infection (6 dpi): 15 μl 4-Methylumbelliferyl-phosphate (MUP, Sigma) is added to each well, the plates are incubated for 15 min at 37° C. and monitored for AP activity using a fluorescence plate reader (Fluostar, BMG).
These dose-response curves are depicted in FIG. 5. […] MPCs are seeded on day 0 at 1000 cells per well of a 384 well plate and co-infected the next day using AdC51-hCAR (MOI 250) and different MOIs of Ad5-NR1H3 (MOI 12000, 4000, 1333, 444).
After 6 days, medium is removed and replaced with fresh medium containing the same concentrations of the compound GW3965. Readouts of AP activity are performed at several time points after the start of the experiment, typically after 7, 10 and 13 days.
After 6 days, medium is removed and replaced with fresh medium containing the same concentrations of the compound APD.

The subject of test [5] is calvarial skull bones (hemicalvaria). Kind of test: Calvarial skull assay (bone organ culture, weight and histological readout). Also on record: species or system CD1 mice. The settings on record: histological readout. The protocol: CD1 pups are harvested around birth from CD1 female mice (received from Janvier (Le Genest St Isle, France) when they were 11 days pregnant). Pups are decapitated and the calvarial skull is dissected and split into 2 hemicalvaria. Hemicalvaria are blotted using sterile gauze, weighed and cultured in 24 well plates (MEMalpha or BGJb-Fitton-Jackson medium containing 50 μg/ml L-ascorbic acid (Sigma, A-4034), 5 mM β-glycerophosphate (Sigma, G-9891) and Penicillin-Streptomycin (Invitrogen Cat # 15140-122)). Small molecules (ligands, agonists, antagonists) are tested in at least three-fold at a minimum of 3 concentrations. Each small molecule is added to the medium on day 0 and added again when refreshing the medium (every 2-3 days). Three to 16 days after the start of the experiment, skulls are weighed again after blotting them dry using sterile gauze. The weight difference is calculated, expressed as percent weight change and the mean and standard deviations (SD) are calculated for the triplicate measurements. Data are analyzed using the Student's t-test.
The formation of new osteoid is analyzed histologically as follows: hemicalvaria are fixed in 10% buffered formalin for at least 2 days, decalcified in 10% EDTA overnight, processed through graded alcohols and embedded in paraffin wax. Three to 10 μm sections are prepared of the calvaria and stained with hematoxylin and eosin (H&E). Healthy cells, dead cells, old and new bone, and collagen are identified by their distinctive morphology and colouring observed after H&E staining. The surfaces taken by these are measured stereologically (μm^2 readout) and termed Osteoblast area, Debris area, Native and New bone area, Collagen area and Total area (sum of the previous 5 areas), respectively. In addition, the thickness (μm readout) is measured at 8 positions, evenly spaced over the section.
The histological readout of the calvarial skull assay is developed using known osteogenic agents. Hemicalvaria were treated with recombinant human parathyroid hormone (rhPTH).
T0901317 is added to the culture medium of the dissected hemicalvaria at the day of dissection at several doses (19.5, 78.1 and 313 nM), in fourfold. The concentration of the solvent (vehicle), DMSO, is fixed at a final concentration of 0.05%. The medium, containing T0901317 or vehicle control is refreshed every 2-3 days. Hemicalvaria are harvested 7 days after the initiation of the experiment and subjected to the histological analysis described above.

T1 sequence (Q8IYL9 whole entry): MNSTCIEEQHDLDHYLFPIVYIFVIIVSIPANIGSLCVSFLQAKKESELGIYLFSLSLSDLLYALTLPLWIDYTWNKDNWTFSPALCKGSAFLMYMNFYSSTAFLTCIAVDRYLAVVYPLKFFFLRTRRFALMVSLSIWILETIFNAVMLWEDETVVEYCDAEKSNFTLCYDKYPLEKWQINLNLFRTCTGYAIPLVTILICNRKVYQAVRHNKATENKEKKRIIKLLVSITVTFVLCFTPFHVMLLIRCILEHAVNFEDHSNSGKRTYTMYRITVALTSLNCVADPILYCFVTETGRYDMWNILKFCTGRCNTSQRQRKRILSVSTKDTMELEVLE

For `C=C1CC[C@H](O)C/C1=C/C=C1\CCC[C@]2(C)[C@@H]([C@H](C)CCCC(C)C)CC[C@@H]12` [VitD3], the “NR5A2 mRNA levels” value in test [1] was “up-regulated”.
For `CCCCCCCCCCCCCC=CC(O)C(N)CO[C@@H]1O[C@H](CO)[C@H](O)[C@H](O)[C@H]1O` (stereo partly drawn) [1-b-D-Galactosylsphingosine], the “up-regulation of endogenous alkaline phosphatase (AP) activity” value in test [2] is on record as “dose-dependently increase”.
For `CC(=O)Oc1ccc2c(c1)[C@@]1(C)CCC[C@](C)(C(=O)OC(=O)[C@@]3(C)CCC[C@]4(C)c5cc(OC(C)=O)ccc5CC[C@@H]34)[C@@H]1CC2` [APD, acetyl podocarpic dimer], the “up-regulation of alkaline phosphatase (AP) activity” value in test [3] was “dose-response relation”. The “up-regulation of endogenous alkaline phosphatase (AP) activity” value in test [4] is on record as “dose-response relation”.
For `O=C(O)Cc1cccc(OCCCN(Cc2cccc(C(F)(F)F)c2Cl)CC(c2ccccc2)c2ccccc2)c1` [GW3965], the “up-regulation of alkaline phosphatase (AP) activity” value in test [3] was “dose-response relation”. In addition, in test [4], the “up-regulation of endogenous alkaline phosphatase (AP) activity” value is reported as “dose-response relation”.

B1: PTH: recombinant human parathyroid hormone, known osteogenic agent (protein, UniProt P01270 32-115, looked up)
Parathyroid hormone: SVSEIQLMHNLGKHLNSMERVEWLRKKLQDVHNFVALGAPLAPRDAGSQRPRKKEDNVLVESHEKSLGEADKADVNVLTKAKSQ
modifications: Parathyroid hormone
notes: recombinant human parathyroid hormone, known osteogenic agent
Regarding B1, the figures for the “effect on bone tissue” value in test [5] (10^−7 M) and in test [5] (10^−11 M) were “resorptive effect” and “induces bone build-up”, respectively.
